pKd: −log10 of the molar value. Read-outs that look alike come from different tables or passages of the source.
Molecular target: T1, human serum albumin (HSA) (Homo sapiens, UniProt P02768)
T1 construct: gene ALB; commercial human serum albumin purchased from Merck
Test: fluorescence polarization titration, nonlinear […] fit
Format: binding

T1 sequence (P02768 25-609): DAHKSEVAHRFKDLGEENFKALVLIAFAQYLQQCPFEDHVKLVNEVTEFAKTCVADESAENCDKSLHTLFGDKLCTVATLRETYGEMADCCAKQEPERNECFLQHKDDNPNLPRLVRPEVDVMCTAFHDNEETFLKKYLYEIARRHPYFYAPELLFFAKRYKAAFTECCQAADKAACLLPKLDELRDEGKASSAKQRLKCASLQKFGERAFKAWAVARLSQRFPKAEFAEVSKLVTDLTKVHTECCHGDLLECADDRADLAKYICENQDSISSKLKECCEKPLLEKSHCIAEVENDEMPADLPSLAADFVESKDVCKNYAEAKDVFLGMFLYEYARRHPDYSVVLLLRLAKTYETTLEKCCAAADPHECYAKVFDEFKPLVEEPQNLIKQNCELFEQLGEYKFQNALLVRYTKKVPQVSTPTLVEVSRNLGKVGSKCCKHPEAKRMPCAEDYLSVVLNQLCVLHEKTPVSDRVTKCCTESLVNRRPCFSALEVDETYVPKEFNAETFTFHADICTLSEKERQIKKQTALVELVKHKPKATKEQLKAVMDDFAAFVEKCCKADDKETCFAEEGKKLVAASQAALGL

Structure (SMILES)	pKd	Kd (read-out: logK (1-HSA, Absence of 2) (converted))
CC1(C)C(CO)=C(c2ccc3ccc4cccc5ccc2c3c45)C(C)(C)N1[O] [compound 1, 3-hydroxymethyl-1-oxyl-4-(pyren-1-yl)-2,2,5,5-tetramethyl-2,5-dihydro-1H-pyrrole radical]	5.85	
CON1C(C)(C)C(CO)=C(c2ccc3ccc4cccc5ccc2c3c45)C1(C)C [compound 6, (1-methoxy-2,2,5,5-tetramethyl-4-(pyren-1-yl)-2,5-dihydro-1H-pyrrol-3-yl)methanol]		0.331 µM

From publication PMC10096054, “A New Application of Spin and Fluorescence Double-Sensor Molecules” (Molecules, 2023)
